Experimental data from paper PMC3961306, “Comparison of the Cancer Gene Targeting and Biochemical Selectivities of All Targeted Kinase Inhibitors Approved for Clinical Use” (PLoS ONE, 2014).

What was measured:
Test in all cases: Kinase profiling in a biochemical assay panel (mobility shift assays and ELISA), %-inhibition at 1 μM; selectivity entropy
[1] = target: T1, panel of more than 300 wild-type and mutant kinases (313 kinase panel) (Homo sapiens, UniProt Q9NRA0)
T1 sequence (Q9NRA0 1-654): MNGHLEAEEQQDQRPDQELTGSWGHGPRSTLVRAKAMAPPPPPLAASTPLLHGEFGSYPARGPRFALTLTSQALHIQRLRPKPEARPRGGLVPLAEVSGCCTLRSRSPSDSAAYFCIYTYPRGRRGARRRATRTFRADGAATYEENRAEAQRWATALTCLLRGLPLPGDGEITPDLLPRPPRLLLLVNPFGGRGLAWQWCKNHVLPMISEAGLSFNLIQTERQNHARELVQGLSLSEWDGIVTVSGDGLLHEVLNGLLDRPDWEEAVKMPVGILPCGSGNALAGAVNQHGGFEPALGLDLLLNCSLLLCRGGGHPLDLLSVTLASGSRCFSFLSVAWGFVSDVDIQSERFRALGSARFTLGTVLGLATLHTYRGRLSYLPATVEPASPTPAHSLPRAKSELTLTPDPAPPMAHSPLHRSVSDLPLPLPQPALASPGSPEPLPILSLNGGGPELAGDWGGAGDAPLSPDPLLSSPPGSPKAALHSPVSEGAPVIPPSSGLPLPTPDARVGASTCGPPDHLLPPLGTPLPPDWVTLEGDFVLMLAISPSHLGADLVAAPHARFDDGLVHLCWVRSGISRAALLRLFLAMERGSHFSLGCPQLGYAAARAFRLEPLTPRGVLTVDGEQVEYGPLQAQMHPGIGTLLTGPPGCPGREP

[2] = target: panel of more than 300 wild-type and mutant kinases (313 kinase panel) (Homo sapiens, UniProt O60674)
panel of more than 300 wild-type and mutant kinases (313 kinase panel) (Homo sapiens, UniProt O60674), sequence (O60674 whole entry, change not shown): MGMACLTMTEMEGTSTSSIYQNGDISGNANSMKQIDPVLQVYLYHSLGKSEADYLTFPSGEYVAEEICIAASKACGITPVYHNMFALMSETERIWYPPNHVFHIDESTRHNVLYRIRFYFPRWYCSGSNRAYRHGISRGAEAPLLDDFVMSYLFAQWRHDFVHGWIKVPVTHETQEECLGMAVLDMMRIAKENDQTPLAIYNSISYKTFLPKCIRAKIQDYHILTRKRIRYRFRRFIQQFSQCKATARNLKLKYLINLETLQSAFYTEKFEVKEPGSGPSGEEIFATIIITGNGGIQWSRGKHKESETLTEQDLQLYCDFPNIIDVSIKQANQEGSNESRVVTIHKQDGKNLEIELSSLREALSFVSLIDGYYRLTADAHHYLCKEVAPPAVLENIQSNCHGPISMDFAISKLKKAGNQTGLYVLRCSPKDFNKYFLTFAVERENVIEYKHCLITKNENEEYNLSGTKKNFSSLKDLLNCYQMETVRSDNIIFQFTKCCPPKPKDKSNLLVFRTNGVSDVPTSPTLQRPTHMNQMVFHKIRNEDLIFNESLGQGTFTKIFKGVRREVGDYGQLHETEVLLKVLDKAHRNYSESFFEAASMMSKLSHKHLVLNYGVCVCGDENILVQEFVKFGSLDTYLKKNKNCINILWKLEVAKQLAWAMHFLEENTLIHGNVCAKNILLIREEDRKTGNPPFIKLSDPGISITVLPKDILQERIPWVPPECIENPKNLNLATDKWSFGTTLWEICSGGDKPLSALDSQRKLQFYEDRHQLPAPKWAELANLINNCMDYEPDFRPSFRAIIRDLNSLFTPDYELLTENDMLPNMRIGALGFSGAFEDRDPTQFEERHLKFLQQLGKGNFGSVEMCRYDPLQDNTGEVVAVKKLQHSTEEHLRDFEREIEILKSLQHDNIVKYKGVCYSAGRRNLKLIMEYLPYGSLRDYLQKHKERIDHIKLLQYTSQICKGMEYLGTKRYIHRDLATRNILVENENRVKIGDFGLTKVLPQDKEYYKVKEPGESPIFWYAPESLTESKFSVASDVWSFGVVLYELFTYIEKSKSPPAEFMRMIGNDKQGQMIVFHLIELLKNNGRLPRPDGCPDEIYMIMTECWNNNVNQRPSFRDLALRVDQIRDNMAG

[3] = target: T2, panel of more than 300 wild-type and mutant kinases (313 kinase panel) (Homo sapiens, UniProt Q9NZJ5)
T2 sequence (Q9NZJ5 30-1116): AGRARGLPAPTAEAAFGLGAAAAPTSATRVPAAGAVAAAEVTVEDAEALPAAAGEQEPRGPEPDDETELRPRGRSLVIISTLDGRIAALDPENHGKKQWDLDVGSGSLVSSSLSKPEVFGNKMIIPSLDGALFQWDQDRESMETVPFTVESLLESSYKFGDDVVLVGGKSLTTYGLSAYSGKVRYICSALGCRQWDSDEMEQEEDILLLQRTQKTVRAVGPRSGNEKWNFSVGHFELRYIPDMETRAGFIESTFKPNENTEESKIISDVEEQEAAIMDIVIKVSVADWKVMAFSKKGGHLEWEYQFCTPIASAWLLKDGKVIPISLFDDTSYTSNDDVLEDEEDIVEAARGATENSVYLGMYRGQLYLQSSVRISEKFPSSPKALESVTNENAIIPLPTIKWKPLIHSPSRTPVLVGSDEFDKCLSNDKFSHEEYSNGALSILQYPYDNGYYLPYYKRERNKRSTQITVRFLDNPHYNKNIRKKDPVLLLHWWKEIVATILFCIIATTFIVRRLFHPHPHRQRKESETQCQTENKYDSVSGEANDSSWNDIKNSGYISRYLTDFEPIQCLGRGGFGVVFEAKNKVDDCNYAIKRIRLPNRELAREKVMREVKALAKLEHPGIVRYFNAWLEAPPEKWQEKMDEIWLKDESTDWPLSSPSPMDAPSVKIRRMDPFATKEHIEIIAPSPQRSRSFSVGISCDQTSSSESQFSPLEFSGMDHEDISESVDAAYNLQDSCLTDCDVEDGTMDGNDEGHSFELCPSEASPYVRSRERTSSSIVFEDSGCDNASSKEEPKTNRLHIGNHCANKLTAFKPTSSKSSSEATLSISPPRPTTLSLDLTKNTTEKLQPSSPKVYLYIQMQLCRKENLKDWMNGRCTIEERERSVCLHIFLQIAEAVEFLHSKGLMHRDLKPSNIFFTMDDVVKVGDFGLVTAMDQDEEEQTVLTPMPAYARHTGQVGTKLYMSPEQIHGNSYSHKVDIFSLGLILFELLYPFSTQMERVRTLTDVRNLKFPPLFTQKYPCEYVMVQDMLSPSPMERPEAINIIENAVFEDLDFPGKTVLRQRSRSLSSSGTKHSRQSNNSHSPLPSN

[4] = target: panel of more than 300 wild-type and mutant kinases (313 kinase panel) (Homo sapiens, UniProt P49840)
[5] = target: panel of more than 300 wild-type and mutant kinases (313 kinase panel) (Homo sapiens, UniProt Q9HC98)
[6] = target: panel of more than 300 wild-type and mutant kinases (313 kinase panel) (Homo sapiens, UniProt P04629)
[7] = target: panel of more than 300 wild-type and mutant kinases (313 kinase panel) (Homo sapiens, UniProt Q14289)
panel of more than 300 wild-type and mutant kinases (313 kinase panel) (Homo sapiens, UniProt Q14289), sequence (Q14289 whole entry, change not shown): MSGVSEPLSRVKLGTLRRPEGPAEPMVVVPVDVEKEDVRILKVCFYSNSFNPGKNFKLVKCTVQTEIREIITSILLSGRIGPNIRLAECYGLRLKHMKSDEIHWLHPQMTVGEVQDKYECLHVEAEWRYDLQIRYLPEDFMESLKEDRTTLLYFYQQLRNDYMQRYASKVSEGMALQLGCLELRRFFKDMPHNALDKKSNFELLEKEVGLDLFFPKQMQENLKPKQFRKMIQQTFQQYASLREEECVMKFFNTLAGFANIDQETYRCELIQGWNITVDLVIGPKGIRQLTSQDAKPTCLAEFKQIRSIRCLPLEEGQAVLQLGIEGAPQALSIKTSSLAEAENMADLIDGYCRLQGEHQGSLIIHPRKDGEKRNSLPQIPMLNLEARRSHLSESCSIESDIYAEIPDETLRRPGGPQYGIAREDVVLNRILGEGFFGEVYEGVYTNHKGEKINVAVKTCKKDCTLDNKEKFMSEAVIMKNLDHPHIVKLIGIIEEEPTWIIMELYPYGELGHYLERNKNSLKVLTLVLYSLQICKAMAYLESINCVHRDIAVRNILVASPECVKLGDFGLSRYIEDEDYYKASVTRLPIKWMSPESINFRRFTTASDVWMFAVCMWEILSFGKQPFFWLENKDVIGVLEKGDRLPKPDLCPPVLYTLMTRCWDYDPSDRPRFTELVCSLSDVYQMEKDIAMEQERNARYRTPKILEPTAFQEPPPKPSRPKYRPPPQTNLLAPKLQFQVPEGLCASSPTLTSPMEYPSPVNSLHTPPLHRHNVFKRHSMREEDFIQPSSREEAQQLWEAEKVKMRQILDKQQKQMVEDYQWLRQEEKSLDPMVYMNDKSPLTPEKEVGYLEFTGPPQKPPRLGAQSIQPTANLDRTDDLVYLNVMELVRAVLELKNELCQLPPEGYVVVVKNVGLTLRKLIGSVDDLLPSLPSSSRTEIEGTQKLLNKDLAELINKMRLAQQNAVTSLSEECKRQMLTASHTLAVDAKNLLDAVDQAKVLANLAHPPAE

| Structure (SMILES) | %-inhibition of SPHK2 ([1]; kinase SPHK2, 1 μM) | %-inhibition of JAK2 ([2]; kinase JAK2, compound at 1 μM) | %-inhibition of PEK ([3]; kinase PEK, 1 μM) | %-inhibition of GSK3α ([4]; kinase GSK3α, compound at 1 μM) | %-inhibition of NEK6 ([5]; kinase NEK6, 1 μM) | %-inhibition of TRKA ([6]; kinase TRKA, 1 μM) | %-inhibition of PYK2 ([7]; kinase PYK2, 1 μM) | %-inhibition of SPHK2 ([1]; 1 µM) | %-inhibition of JAK2 ([2]; 1 µM) | %-inhibition of PEK ([3]; 1 µM) | %-inhibition of GSK3α ([4]; 1 µM) | %-inhibition of NEK6 ([5]; 1 µM) | %-inhibition of TRKA ([6]; 1 µM) | %-inhibition of PYK2 ([7]; 1 µM) |
| --- | --- | --- | --- | --- | --- | --- | --- | --- | --- | --- | --- | --- | --- | --- |
| C[C@@H](Oc1cc(-c2cnn(C3CCNCC3)c2)cnc1N)c1c(Cl)ccc(F)c1Cl [crizotinib] | 8% | 98% | 1.1% | -2.56% | -2.72% | 103% |  |  |  |  |  |  |  |  |
| CC(C)(C)c1nc(-c2cccc(NS(=O)(=O)c3c(F)cccc3F)c2F)c(-c2ccnc(N)n2)s1 [dabrafenib] | -14% |  |  |  | -3% |  | 56% |  |  |  |  |  |  |  |
| COc1cc2c(Nc3ccc(Br)cc3F)ncnc2cc1OCC1CCN(C)CC1 [vandetanib] | 5.7% | 0.942% | 4.69% | -5.37% | -4.3% | 46% | 6% |  |  |  |  |  |  |  |
| O=S(=O)(c1cccc2cnccc12)N1CCCNCC1 [fasudil] | -21% | 3.24% | -7.4% | 0.911% | -2.46% | -2.44% | 1.79% |  |  |  |  |  |  |  |
| C#Cc1cccc(Nc2ncnc3cc(OCCOC)c(OCCOC)cc23)c1 [erlotinib] |  |  |  |  |  |  |  | -2.22% | 36% | 1.35% | -4% | 2% | 14% | 8% |
| COc1cc2nccc(Oc3ccc(NC(=O)C4(C(=O)Nc5ccc(F)cc5)CC4)cc3)c2cc1OC [cabozantinib] | 2% | 29% | 79% | -10% | -3.21% | 100% | 91% |  |  |  |  |  |  |  |
| Cc1ccc(C(=O)Nc2ccc(CN3CCN(C)CC3)c(C(F)(F)F)c2)cc1C#Cc1cnc2cccnn12 [ponatinib] | 11% | 92% | 65% |  | -10% | 101% | 99% |  |  |  |  |  |  |  |
| CCCS(=O)(=O)Nc1ccc(F)c(C(=O)c2c[nH]c3ncc(-c4ccc(Cl)cc4)cc23)c1F [vemurafenib] | 8% | 18% | 11% | 25% | -1.43% | 16% | 0.921% |  |  |  |  |  |  |  |
| CCN(CC)CCNC(=O)c1c(C)[nH]c(/C=C2\C(=O)Nc3ccc(F)cc32)c1C [sunitinib] |  |  |  |  |  | 98% | 94% |  |  |  |  |  |  |  |
| Cc1cn(-c2cc(NC(=O)c3ccc(C)c(Nc4nccc(-c5cccnc5)n4)c3)cc(C(F)(F)F)c2)cn1 [nilotinib] | 6% | 19% | 0.387% | -0.491% | 1% |  |  |  |  |  |  |  | 41% | -63% |
| CS(=O)(=O)CCNCc1ccc(-c2ccc3ncnc(Nc4ccc(OCc5cccc(F)c5)c(Cl)c4)c3c2)o1 [lapatinib] | -4% | -1.58% | -0.193% | -8% | -4.3% | 5.64% | -0.787% |  |  |  |  |  |  |  |
| CNC(=O)c1cc(Oc2ccc(NC(=O)Nc3ccc(Cl)c(C(F)(F)F)c3)c(F)c2)ccn1 [regorafenib] | -3.2% | 33% | 12% | 37% | -6.48% | 90% | -0.496% |  |  |  |  |  |  |  |
| Cc1ccc(Nc2nccc(N(C)c3ccc4c(C)n(C)nc4c3)n2)cc1S(N)(=O)=O [pazopanib] | 4% | 50% | 2.38% | 6.5% | -3% |  | 39% |  |  |  |  |  |  |  |
| N#CC[C@H](C1CCCC1)n1cc(-c2ncnc3[nH]ccc23)cn1 [ruxolitinib] | 6% |  | -0.459% | 9% | -6% | 92% | 68% |  |  |  |  |  |  |  |
| CO[C@H]1C[C@@H]2CC[C@@H](C)[C@@](O)(O2)C(=O)C(=O)N2CCCC[C@H]2C(=O)O[C@H]([C@H](C)C[C@@H]2CC[C@@H](OCCO)[C@H](OC)C2)CC(=O)[C@H](C)/C=C(\C)[C@@H](O)[C@@H](OC)C(=O)[C@H](C)C[C@H](C)/C=C/C=C/C=C/1C [everolimus] | 1.25% |  | 5.28% | -14% | -6.38% | -3.53% | 1.49% |  |  |  |  |  |  |  |
| CC(=O)Nc1cccc(-n2c(=O)n(C3CC3)c(=O)c3c(Nc4ccc(I)cc4F)n(C)c(=O)c(C)c32)c1 [trametinib] | -14% |  | 1.13% |  | -0.324% | -1.17% | 2.72% |  |  |  | 1.59% |  |  |  |
| COc1cc(Nc2c(C#N)cnc3cc(OCCCN4CCN(C)CC4)c(OC)cc23)c(Cl)cc1Cl [bosutinib] | 4.4% | 64% | 11% |  |  | 88% | 89% |  |  |  | 9% | -6% |  |  |
| CN(C)C/C=C/C(=O)Nc1cc2c(Nc3ccc(F)c(Cl)c3)ncnc2cc1O[C@H]1CCOC1 [afatinib] | -10% |  | 12% |  |  |  |  |  |  |  |  |  |  |  |
| CO[C@H]1C[C@@H]2CC[C@@H](C)[C@@](O)(O2)C(=O)C(=O)N2CCCC[C@H]2C(=O)O[C@H]([C@H](C)C[C@@H]2CC[C@@H](OC(=O)C(C)(CO)CO)[C@H](OC)C2)CC(=O)[C@H](C)/C=C(\C)[C@@H](O)[C@@H](OC)C(=O)[C@H](C)C[C@H](C)/C=C/C=C/C=C/1C [temsirolimus] | 2.77% |  | 8% | -14% | -3.31% | -3.53% | -3% |  |  |  |  |  |  |  |
